From patent US20220332700A1, “NOVEL APOPTOSIS SIGNAL-REGULATING KINASE 1 INHIBITORS” (MANKIND PHARMA LTD, priority 2019, published 2022)
Where two headings read alike, the source gives them in different places.

What was measured:
[1] = tested on: Male C57BL/6 mice; assay: Mouse model of Acetaminophen (APAP) induced Hepatotoxicity; format: in vivo; conditions: l0mpk and 30mpk; APAP 300 mg/kg i.p.; 6h post APAP; dose dependent, comparable with selonsertib
Method: Male C57BL/6 mice, 20 to 24 grams body weight at the time of study initiation, were acclimatized at least for 1-3 days prior to experiment initiation. Based on body weight, animal were randomized to different groups and kept for overnight fasting. Animals were treated with test compounds and vehicle for control group. After 30 minutes, APAP (300 mg/kg) was administered by intraperitoneal route (i.p). A vehicle control group was also included in the study as a vehicle control for test compound as well as APAP. All animals were bled 6h post APAP administration from the retro-orbital plexus into appropriately labeled tubes. Serum ALT levels were measured in all groups.

[2] = biological target: T1, ASK2 (Homo sapiens, UniProt O95382); assay: ASK2 biochemical assay (selectivity assay); conditions: ATP 100 μM
T1 construct: purchased Carna Biosciences
T1 sequence (O95382 1-1288): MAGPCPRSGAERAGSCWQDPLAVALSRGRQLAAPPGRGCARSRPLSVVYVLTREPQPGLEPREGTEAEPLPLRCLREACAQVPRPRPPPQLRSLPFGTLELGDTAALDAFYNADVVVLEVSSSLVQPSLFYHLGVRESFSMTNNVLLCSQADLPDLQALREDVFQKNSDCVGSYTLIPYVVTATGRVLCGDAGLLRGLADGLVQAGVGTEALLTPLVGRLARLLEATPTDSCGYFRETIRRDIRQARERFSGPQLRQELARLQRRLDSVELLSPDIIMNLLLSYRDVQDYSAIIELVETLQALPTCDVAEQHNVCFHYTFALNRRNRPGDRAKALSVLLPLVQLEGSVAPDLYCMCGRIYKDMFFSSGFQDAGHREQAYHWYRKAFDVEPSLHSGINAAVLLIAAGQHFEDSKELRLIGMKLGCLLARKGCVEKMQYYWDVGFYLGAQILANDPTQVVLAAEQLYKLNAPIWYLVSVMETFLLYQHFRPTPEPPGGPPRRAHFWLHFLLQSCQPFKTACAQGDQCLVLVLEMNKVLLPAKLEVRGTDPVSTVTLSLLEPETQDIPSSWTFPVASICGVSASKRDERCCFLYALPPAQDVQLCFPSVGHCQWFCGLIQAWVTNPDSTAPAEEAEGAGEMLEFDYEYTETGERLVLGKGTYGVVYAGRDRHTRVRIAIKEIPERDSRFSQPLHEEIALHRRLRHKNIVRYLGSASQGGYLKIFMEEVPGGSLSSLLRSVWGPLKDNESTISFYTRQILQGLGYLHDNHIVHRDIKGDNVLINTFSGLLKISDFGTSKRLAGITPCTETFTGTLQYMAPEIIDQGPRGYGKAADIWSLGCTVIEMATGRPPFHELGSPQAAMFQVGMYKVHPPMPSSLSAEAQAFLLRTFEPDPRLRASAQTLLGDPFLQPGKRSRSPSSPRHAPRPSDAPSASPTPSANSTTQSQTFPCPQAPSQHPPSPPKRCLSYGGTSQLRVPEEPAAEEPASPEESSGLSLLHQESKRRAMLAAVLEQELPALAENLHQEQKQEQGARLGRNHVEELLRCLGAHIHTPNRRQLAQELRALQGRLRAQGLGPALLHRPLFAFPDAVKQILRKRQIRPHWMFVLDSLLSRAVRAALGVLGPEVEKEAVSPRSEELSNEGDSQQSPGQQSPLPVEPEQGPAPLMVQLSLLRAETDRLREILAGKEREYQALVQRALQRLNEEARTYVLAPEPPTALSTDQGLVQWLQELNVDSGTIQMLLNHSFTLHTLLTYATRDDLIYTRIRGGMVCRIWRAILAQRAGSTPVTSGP
Method: ASK2 assay was performed to evaluate above mentioned example for its selectivity towards ASK1 with respect ASK 2.
ASK2 biochemical assay was standardized using ASK2 (Carna Biosciences), MBP biotin conjugate (Merk life science), ATP, streptavidin surelight APC (PerkinElmer) and Lance Eu-W1024-antiphospho threonine (PerkinElmer). Enzyme concentration, ATP, MBP biotin conjugate and antibodies were titrated for enzyme assay. Assay was carried out in freshly prepared ASK2 kinase buffer, 5 mM MOPS pH-7.2, 2.5 mM β-glycerophosphate, 5 mM magnesium chloride (MgCl2), 1 mM EGTA, 0.4 mM EDTA, 0.05 mM DTT and 0.05% BSA. DMSO was used as vehicle control with a final concentration of 1%. A 40 ng of ASK2 enzyme was incubated with compound for 1 hour at 23° C. on a shaker at 100rpm. ATP and MBP biotin conjugate (as substrate) was added at a final concentration of 100 μM and 0.1mg/ml respectively and incubated for 3 hours at 23° C. on a shaker at 100rpm. Detection reagents streptavidin surelight APC (55.56nM), lance Eu-W1024-antiphospho threonine antibody (1.11nM) and 1X lance detection buffer were added and incubated for 2 hour at room temperature on a shaker at 100rpm. Delta F ratios were calculated from data obtained at excitation (337 nm) and emission wavelengths (665 nm and 620-10 nm). Substrate blank values were considered as negative control. Values from negative control were subtracted from vehicle control and compound treated wells. Enzyme inhibition by compounds was calculated from vehicle controls, which represent uninterrupted enzyme's activity.

[3] = biological target: T2, recombinant ASK1 (Homo sapiens, UniProt Q99683); assay: ASK1 Biochemical Assay (HTRF KinEASE-STK S3)
T2 construct: purchased Carna Biosciences
T2 sequence (Q99683 654-971 limits assumed): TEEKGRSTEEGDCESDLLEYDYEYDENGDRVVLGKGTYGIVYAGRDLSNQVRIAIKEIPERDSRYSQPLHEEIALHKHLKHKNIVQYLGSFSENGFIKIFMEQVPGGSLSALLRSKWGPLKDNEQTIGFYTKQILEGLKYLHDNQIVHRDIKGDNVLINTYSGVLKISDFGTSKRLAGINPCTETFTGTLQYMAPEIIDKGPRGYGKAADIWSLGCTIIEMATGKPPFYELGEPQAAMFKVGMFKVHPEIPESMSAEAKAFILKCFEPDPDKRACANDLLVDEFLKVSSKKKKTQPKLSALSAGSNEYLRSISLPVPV
Summary of the method: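 Recombinant ASK1 (5 ng) preincubated with compound 1 h at 23 °C in MOPS pH 7 buffer with Mg-acetate, DTT, NP40, glycerol, BSA and 1% DMSO. Inhibition calculated against vehicle after substrate-blank subtraction.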

[4] = ATP 100 μM, read-out: Biochemical Assay IC50
[5] = comparison with Selonsertib, read-out: ASK1 biochemical Assay (IC50)
[6] = selectivity table, read-out: ASK1 Biochemical Assay IC50

Row | IC50 [2] [nM] | IC50 [3, 4] [nM] | IC50 [3, 5] [nM] | IC50 [3, 6] [nM] | Structure (SMILES) | reduction in serum ALT levels compared to vehicle [1]
1 | > 10000 | < 100 | 4.1 | 4.1 | CC(C)n1cnnc1-c1cccc(N2CCN(c3ccc(N4CCOCC4)cc3)C2=O)n1 [Example 1043, 1-(6-(4-isopropyl-4H-1,2,4-triazol-3-yl)pyridin-2-yl)-3-(4-morpholinophenyl)imidazolidin-2-one] | significant reduction
2 | > 10000 | < 100 | 3.8 | 3.8 | CC(C)n1cnnc1-c1cccc(N2CCN(c3ccc(N4CC(C#N)C4)cc3)C2=O)n1 [Example 1071, 1-(4-(3-(6-(4-isopropyl-4H-1,2,4-triazol-3-yl)pyridin-2-yl)-2-oxoimidazolidin-1-yl)phenyl)azetidine-3-carbonitrile] | significant reduction
3 | 8500 | < 50 | 1 | 1 | CNC(=O)C1CCN(c2ccc(N3CCN(c4cccc(-c5nncn5C(C)C)n4)C3=O)cc2)CC1 [Example 1082, 1-(4-(3-(6-(4-isopropyl-4H-1,2,4-triazol-3-yl)pyridin-2-yl)-2-oxoimidazolidin-1-yl)phenyl)-N-methylpiperidine-4-carboxamide] | significant reduction
4 | 7900 | < 50 | 3.8 | 3.8 | CC(C)n1cnnc1-c1cccc(N2CCN(c3ccc(N4CCC(C(=O)N(C)C)CC4)cc3)C2=O)n1 [Example 1097, 1-(4-(3-(6-(4-isopropyl-4H-1,2,4-triazol-3-yl)pyridin-2-yl)-2-oxoimidazolidin-1-yl)phenyl)-N,N-dimethylpiperidine-4-carboxamide] | significant reduction
